Data from patent EP0731710B1, “THYMOSINE ALPHA 1 CONTAINING COMPOSITIONS FOR THE TREATMENT OF PATIENTS HAVING DECOMPENSATED LIVER DISEASE” (ALPHA 1 BIOMEDICALS, INC., priority 1993, dated 2003).
No end group written: not given here.

Test: Tolerability / adverse effects of Thymosin alpha 1 in patients with cirrhosis and hepatic decompensation
Assay type: in vivo, patient
Description: Patient 2 was a person with very far-advanced cirrhosis secondary to long-standing chronic Hepatitis B infection. Their findings included jaundice, weakness, severe encephalopathy, hepato-renal syndrome with renal failure, and portal gastropathy secondary to increased portal vein pressure. They received Thymosin alpha 1 at a dose of 1.6 mg subcutaneously twice weekly under a compassionate use protocol in an attempt to cure their Hepatitis B virus infection so that they could received a liver transplant. […] Death was associated with complications of portal hypertension and cirrhosis, and not due to therapy with Thymosin alpha 1.
They were started on Thymosin alpha 1 at a dose of 1.6 mg subcutaneously twice weekly, with the intention of treating them for 26 weeks. […] However, their therapy was discontinued after 46 injections because of complications of the cirrhosis. They expired about three weeks after their last injection. Their death was attributed to bleeding esophageal varices and hepatoma.
In summary, the above three patients with cirrhosis and hepatic decompensation received Thymosin alpha 1 at a dose of 1.6 mg subcutaneously twice weekly for periods varying from 3.5 weeks to 6 months. In each case, the intent of therapy was to cure chronic Hepatitis B virus infection so that the patient could be considered for transplant. […] Two other patients, both of whom had far-advanced disease, died of complications of cirrhosis, with no evidence that Thymosin alpha 1 contributed to their deaths.

## Ac-SDAAVDTSSEITTKDLKEKKEVVEEAEN [Thymosin alpha 1]
Patient 2, 1.6 mg subcutaneously twice weekly, 3 1/2 weeks of therapy
  side effects: no side effects
Patient 3, 1.6 mg subcutaneously twice weekly, 46 injections
  adverse effects: no adverse effects
Three patients with cirrhosis and hepatic decompensation, 1.6 mg subcutaneously twice weekly for 3.5 weeks to 6 months
  adverse effects due to Tα1: None of the patients reported any adverse effects
